Data published in patent US5387600A, “Treating arteriosclerosis using benzimidazole compositions” (priority 1992, dated 1995).
Like-named read-outs stand apart in the source and are kept apart here.

Columns and labels:
[1] = test system: mouse abdominal cavity macrophage; assay: In vitro test for suppressing effect of macrophage-foaming reaction; format: cell-based; details: compared with control; for activity at 5 µM: Mus musculus, Macrophage, 16 h
Method: (1) In vitro test for suppressing effect of macrophage-foaming reaction using mouse abdominal cavity macrophage
A 15-week old ICR female mouse (Japan SLC) was amputated at its neck and exsanguinated. Then, Hanks buffer (Nissui Pharmaceutical Co., Ltd.) was injected intraperitoneally. After massaging the abdominal part, the buffer was recovered rapidly and centrifuged at 1,000 rpm for 5 minutes to collect the abdominal cavity macrophage. Then, the collected abdominal cavity macrophage was suspended in GIT medium (Wako Pure Chemical Industry) and inoculated on a 24-well microplate. After culturing the macrophage for 2 hours at 37° C. in 5% CO2, the medium was changed into Dulbecco modified Eagle's MEM medium (Nissui Pharmaceutical Co., Ltd.). After further culturing the macrophage for 16 hours at 37° C. in 5% CO2, the following substances were added in order:
1 Test compounds: solutions in DMSO (Wako Pure Chemical Industry) 1 ml of the solutions were prepared, optionally diluted and the diluted solutions were added to individual wells (500 μl) in the amount of 5μl.
PC: phosphatidylcholine (Funakoshi)
PS: phosphatidylserine (Funakoshi)
DCP: dicetylphosphate (Funakoshi)
CHOL.: cholesterol (Sigma)
3 ^3 H-Oleic acid (Amersham Japan)
Then, after still further culturing the macrophage for 16 hours at 37° C. in 5% CO2, the lipid fraction was extracted with chloroform and methanol. The extracted lipid fraction was subjected to TLC (hexane:ether:acetic acid=70:30:1), the separated bands of CE (cholesterylester) and TG (triglyceride) were borne off from the TLC plate and then the radioactivities thereof were measured using a liquid scintillation counter (PACKARD BH-22). Yields of cholesteryl ester were calculated by comparing with a control.

rabbit fed normal feed = assay: Blood lipid lowering effect in rabbit fed normal feed; format: in vivo; details: New Zealand White female rabbits, 100 mg/kg/day in feed for 7 successive days
Method: (3) Blood lipid lowering effect in rabbit fed normal feed (i) New Zealand White female rabbits having body weight of about 2 kg were fed normal feed (100 g/day/rabbit: ORC-4 manufactured by Oriental Yeast) for 7 days.
(§1) Subsequently, one group consisting of 3 rabbits (treatment group) was fed the normal feed in the same amount, except that the feed further contained test compound (8) in the amount of 100 mg/kg/day/rabbit, for 7 successive days. As a control, another group consisting of 3 rabbits was fed the normal feed in the same amount without any test compound.
A Small amount of blood was drawn from the parotic vein of every rabbit once a week and was measured for amount of blood total cholesterol using IATROLIPO TC manufactured by Iatron Laboratories Inc.
Thus, it is clear that test compound (8) has an excellent blood cholesterol lowering effect not only on rabbits fed high-cholesterol feed but also on rabbits fed normal feed. (ii) New Zealand White female rabbits having body weight of about 2 kg were fed normal feed (100 g/day/rabbit: ORC-4 manufactured by Oriental Yeast) for 7 days. […]
(§2) A small amount of blood was drawn from the parotic vein of every rabbit once a week and was measured for amount of blood total cholesterol using IATROLIPO TC manufactured by Iatron Laboratories Inc.

[2] = test system: rabbit fed high-cholesterol feed; assay: Blood lipid lowering effect in rabbit fed high-cholesterol feed; format: in vivo; details: New Zealand White female rabbits, 100 mg/kg/day in feed for 7 successive days
Description: (2) Blood lipid lowering effect in rabbit fed high-cholesterol feed (i) New Zealand White female rabbits having body weight of about 2 kg were fed feed having high cholesterol content (100 g/day/rabbit: ORC-4 manufactured by Oriental Yeast, containing 0.5% of cholesterol and 0.5% of olive oil) for 7 days to produce hypercholesterolemia.
as §1, with “same” for “normal”, “On the other hand, as” for “As”
as §2
Thus, it is clear that test compound (8) has an excellent lowering effect of the blood cholesterol. (ii) New Zealand White female rabbits having body weight of about 2 kg were fed feed having high cholesterol content (100 g/day/rabbit: ORC-4 manufactured by Oriental Yeast, containing 0.5% of cholesterol and 0.5% of olive oil) for 7 days to produce hypercholesterolemia. […]

Acute toxicity test = details: mouse, in vivo; oral, suspension in 0.5% Tween 80, 8-week old ddy mice
Description: Compounds (8) and (53) each was suspended in 0.5% Tween 80 solution. Six 8-week old ddy mice were orally administered the suspensions respectively and were observed on acute toxicity.

[3] = test system: rabbit fed feed having high cholesterol content; assay: Arteriosclerosis focus formation-regressing effect in rabbit fed feed having high cholesterol content; format: in vivo; details: 100 mg/kg/day in feed for 20 successive days
Description: (4) Arteriosclerosis focus formation-regressing effect in rabbit fed feed having high cholesterol content
New Zealand White female rabbits having body weight of about 2 kg were fed feed having high cholesterol content (100 g/day/rabbit: ORC-4 manufactured by Oriental Yeast, containing 0.5% of cholesterol and 0.5% of olive oil) for 7 days to produce hypercholesterolemia.
as §1, with “same” for “normal”, “(53)” for “(8)”, “20” for “7”, “On the other hand, as” for “As”
After 20 weeks from the administration of the test compound, the aortas and arch part thereof were removed from each rabbit and the blood vessels were opened. Comparing the treatment group with the control group, it was observed that the arteriosclerosis focus formation was suppressed effectively in the treatment group.

[4] = cholesteryl ester from 3H-oleic acid, read-out: Yield of CE (%)
[5] = triglyceride from 3H-oleic acid, read-out: Yield of TG (%)

Structure (SMILES): Cc1cc(C)c(O)c(C(C)(C)c2cc(C)cc(C)c2O)c1 [(62)]
- activity at 5 µM [1, 4]: 61%
- activity at 5 µM [1, 5]: 98%

Structure (SMILES): Cc1cc(C)c(O)c(Cc2cc(C(C)(C)C)cc(C(C)(C)C)c2O)c1 [(66)]
- activity at 5 µM [1, 4]: 54%
- activity at 5 µM [1, 5]: 108%

Structure (SMILES): CCCCCCCCCCCCNC(=O)c1ccc2[nH]c(S)nc2c1 [(30)]
- activity at 5 µM [1, 4]: 51%
- activity at 5 µM [1, 5]: 91%

Structure (SMILES): CCCCCCCC(c1cc(C)cc(C2(C)CCCCC2)c1O)c1cc(C)cc(C2(C)CCCCC2)c1O [(61)]
- activity at 5 µM [1, 4]: 52%
- activity at 5 µM [1, 5]: 103%

Structure (SMILES): CCCC(c1cc(C(C)(C)C)cc(C(C)(C)C)c1O)c1cc(C(C)(C)C)cc(C(C)(C)C)c1O [(56)]
- activity at 5 µM [1, 4]: 51%
- activity at 5 µM [1, 5]: 102%

Structure (SMILES): c1ccc(CSc2nc3ccccc3[nH]2)cc1 [(7), 2-benzylthiobenzimidazole]
- activity at 5 µM [1, 4]: 61%
- activity at 5 µM [1, 5]: 91%

Structure (SMILES): CCCCCCCCCCCC(=O)Nc1ccc2nc(S)[nH]c2c1 [(8), 5-dodecanoylamino-2-mercaptobenzimidazole]
- fall of amount of blood total cholesterol in comparison with the control group (rabbit fed normal feed): 20%
- fall of amount of blood total cholesterol in comparison with the control group [2]: 25%
- LD50 (Acute toxicity test): ≥ 1000 mg/kg
- activity at 5 µM [1, 4]: 42%
- activity at 5 µM [1, 5]: 106%

Structure (SMILES): CCCCCCCCCCCCOC(=O)c1ccc2[nH]c(S)nc2c1 [(34)]
- activity at 5 µM [1, 4]: 50%
- activity at 5 µM [1, 5]: 108%

Structure (SMILES): CCOC(=O)Oc1c(C)cc(C)cc1C(c1cc(C)cc(C)c1O)C(C)C (stereo not drawn) [(73)]
- activity at 5 µM [1, 4]: 48%
- activity at 5 µM [1, 5]: 90%

Structure (SMILES): Cc1nc2ccc([N+](=O)[O-])cc2[nH]1 [(5), 2-metyl-5-nitrobenzimidazole]
- activity at 5 µM [1, 4]: 67%
- activity at 5 µM [1, 5]: 89%

Structure (SMILES): Cc1cc(C)c(O)c(C(c2cc(C)cc(C)c2O)C(C)C)c1 [(53), 2,2'-isobutylidenebis(4,6-dimethyphenol)]
- fall of amount of blood total cholesterol in comparison with the control group (rabbit fed normal feed): 20%
- cholesterol deposition to the eye ball ([3]; after 20 weeks): suppressing
- fatty liver formation ([3]; after 20 weeks): suppressing
- arteriosclerosis focus formation ([3]; aortas examined after 20 weeks): suppresses
- fall of amount of blood total cholesterol in comparison with the control group [2]: 40%
- LD50 (Acute toxicity test): ≥ 1000 mg/kg
- activity at 5 µM [1, 4]: 56%
- activity at 5 µM [1, 5]: 92%

Structure (SMILES): CC(CC(=O)Nc1ccc2[nH]c(S)nc2c1)CC(C)(C)C (stereo not drawn) [(23)]
- activity at 5 µM [1, 4]: 56%
- activity at 5 µM [1, 5]: 119%

Structure (SMILES): Cc1cc(C(c2ccccc2)c2cc(C)cc(C(C)(C)C)c2O)c(O)c(C(C)(C)C)c1 [(60)]
- activity at 5 µM [1, 4]: 48%
- activity at 5 µM [1, 5]: 96%

Structure (SMILES): Cc1cc(C(CCc2ccccc2)c2cc(C)cc(C(C)(C)C)c2O)c(O)c(C(C)(C)C)c1 [(74)]
- activity at 5 µM [1, 4]: 65%
- activity at 5 µM [1, 5]: 108%

Structure (SMILES): O=[N+]([O-])c1ccc2nc(CCCCCCCCc3nc4ccc([N+](=O)[O-])cc4[nH]3)[nH]c2c1 [(6), 1,8-bis(5-nitrobenzimidazol-2-yl) octane]
- activity at 5 µM [1, 4]: 8%
- activity at 5 µM [1, 5]: 61%

Structure (SMILES): Cc1cc(C)c(O)c(C(CC(C)CC(C)(C)C)c2cc(C)cc(C)c2O)c1 (stereo not drawn) [(54)]
- activity at 5 µM [1, 4]: 25%
- activity at 5 µM [1, 5]: 95%

Structure (SMILES): CCCCCCCCCCCC(=O)Nc1ccc2[nH]c(SC)nc2c1 [(28)]
- activity at 5 µM [1, 4]: 53%
- activity at 5 µM [1, 5]: 164%

Structure (SMILES): O=C(CSc1nc2ccccc2[nH]1)c1ccccc1O [(43)]
- activity at 5 µM [1, 4]: 45%
- activity at 5 µM [1, 5]: 98%

Structure (SMILES): CCC(C)c1cc(C(C)CC)c(O)c(C(c2cc(C(C)CC)cc(C(C)CC)c2O)C(C)C)c1 (stereo not drawn) [(65)]
- activity at 5 µM [1, 4]: 38%
- activity at 5 µM [1, 5]: 101%

Structure (SMILES): CCCCCCCCCC(=O)Nc1ccc2[nH]c(S)nc2c1 [(10)]
- activity at 5 µM [1, 4]: 69%
- activity at 5 µM [1, 5]: 129%

Structure (SMILES): CCCCCCCCS(=O)(=O)Nc1ccc2[nH]c(S)nc2c1 [(21)]
- activity at 5 µM [1, 4]: 64%
- activity at 5 µM [1, 5]: 93%

Structure (SMILES): CCCCCCCCCCCCCCCCSc1nc2ccccc2[nH]1 [(20)]
- activity at 5 µM [1, 4]: 49%
- activity at 5 µM [1, 5]: 62%

Structure (SMILES): CC(=O)Oc1c(Cc2cc(C)cc(C(C)(C)C)c2O)cc(C)cc1C(C)(C)C [(58)]
- activity at 5 µM [1, 4]: 45%
- activity at 5 µM [1, 5]: 98%

Structure (SMILES): CCCCCCCCCCCCNS(=O)(=O)c1ccc2[nH]c(S)nc2c1 [(12)]
- activity at 5 µM [1, 4]: 52%
- activity at 5 µM [1, 5]: 102%

Structure (SMILES): CCCCCCCCCCCC(=O)Nc1ccc2[nH]cnc2c1 [(47)]
- activity at 5 µM [1, 4]: 55%
- activity at 5 µM [1, 5]: 98%

Structure (SMILES): COC(=O)CCCC(C)(C)c1cc(C)cc(Cc2cc(C)cc(C(C)(C)CCCC(=O)OC)c2O)c1O [(67)]
- activity at 5 µM [1, 4]: 42%
- activity at 5 µM [1, 5]: 92%

Structure (SMILES): CCCCCCCCOc1ccc2[nH]c(S)nc2c1 [(27)]
- activity at 5 µM [1, 4]: 51%
- activity at 5 µM [1, 5]: 78%

Structure (SMILES): Cc1cc(Cc2cc(C)cc(C(C)(C)C)c2O)c(O)c(C(C)(C)C)c1 [(52)]
- activity at 5 µM [1, 4]: 38%
- activity at 5 µM [1, 5]: 101%

Structure (SMILES): CN1C(=O)C(Cl)C(Sc2nc3ccccc3[nH]2)N(C)C1=O (stereo not drawn) [(42)]
- Yield of CE (%) ([1]; 5 μM, cholesteryl ester from 3H-oleic acid, 960 min): 61%
- Yield of TG (%) ([1]; 5 μM, triglyceride from 3H-oleic acid, 960 min): 96%

Structure (SMILES): CCC(C)(C)c1cc(C(C)c2cc(C(C)(C)CC)cc(C(C)(C)CC)c2O)c(O)c(C(C)(C)CC)c1 [(63), 2,2'-ethylidenebis(4,6-di-tert-pentylphenol)]
- activity at 5 µM [1, 4]: 42%
- activity at 5 µM [1, 5]: 96%
